# Measurements: patent US10633419B2, “Immunomodulators” (BRISTOL-MYERS SQUIBB COMPANY, priority 2014, dated 2020)
# Positions of bridges follow the written chain, without caps; N, C: chain ends. Non-standard residues stand in square brackets, D forms with d. Residues, ends and D or L forms follow the SMILES beside them. Trp(1-CH2COOH) = N[C@@H](Cc1cn(CC(=O)O)c2ccccc12)C(=O)O; Phe(3,4,5-F3) = N[C@@H](Cc1cc(F)c(F)c(F)c1)C(=O)O; d(cisHyp) = O=C(O)[C@H]1C[C@@H](O)CN1; Hyp = O=C(O)[C@@H]1C[C@@H](O)CN1; NMeF = CN[C@@H](Cc1ccccc1)C(=O)O; NMeNle = CCCC[C@H](NC)C(=O)O; NMeA = CN[C@@H](C)C(=O)O; Orn = NCCC[C@H](N)C(=O)O; Pra = C#CC[C@H](N)C(=O)O; Dap = NC[C@H](N)C(=O)O
# Molecular target: T1, PD-L1 (Homo sapiens, UniProt Q9NZQ7)
# T1 construct: hPDL1(19-239)-TVMV-His; made in house; host or cells: HEK293T
# T1 sequence (Q9NZQ7 with tags, fused parts or gaps): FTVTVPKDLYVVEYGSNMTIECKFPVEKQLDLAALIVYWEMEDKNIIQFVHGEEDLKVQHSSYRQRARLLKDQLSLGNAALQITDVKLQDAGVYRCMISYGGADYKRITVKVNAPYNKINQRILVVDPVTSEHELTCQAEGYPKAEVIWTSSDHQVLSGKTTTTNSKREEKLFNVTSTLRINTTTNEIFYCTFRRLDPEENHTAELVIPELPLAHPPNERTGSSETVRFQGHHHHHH
# Experiment: PD-1/PD-L1 Homogenous Time-Resolved Fluorescence (HTRF) binding assay (PD-1-Ig/PD-L1-His)
# Details: inhibition of PD-1-Ig binding to PD-L1-TVMV-His; value given as range class; read-out: HTRF IC50
# Summary of the method: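 Inhibitors pre-incubated 15 min with PD-L1-His (10 nM final), then PD-1-Ig (20 nM final) added for 15 min in dPBS/0.1% BSA/0.05% Tween-20. Eu-cryptate anti-Ig (1 nM) and APC anti-His (20 nM) added, 30 min equilibration, 665/620 nm HTRF ratio read.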
row,IC50 [nM],Structure (SMILES)
1,10 to 99,"C#CC[C@H](NC(=O)CNC(=O)[C@@H]1CSCC(=O)N[C@@H](Cc2ccc(O)cc2)C(=O)N(C)[C@@H](C)C(=O)N[C@@H](CC(N)=O)C(=O)N2CCC[C@H]2C(=O)N[C@@H](CN)C(=O)N[C@@H](CC(C)C)C(=O)N2C[C@H](O)C[C@H]2C(=O)N[C@@H](Cc2c[nH]c3ccccc23)C(=O)N[C@@H](CO)C(=O)N[C@@H](Cc2cn(CC(=O)O)c3ccccc23)C(=O)N(C)[C@@H](CCCC)C(=O)N(C)[C@@H](CCCC)C(=O)N[C@@H](CCC(=O)O)C(=O)N1)C(N)=O [INT 1400I, ClAc-Tyr-mAla-Asn-Pro-Dap-Leu-Hyp-Trp-Ser-[(S)-2-amino-3-(1-(carboxymethyl)-1H-indol-3-yl)propanoic acid]-mNle-mNle-E-Cys-Gly-[(S)-propargylglycine]] ({CH2CO}-Y[NMeA]NP[Dap]L[Hyp]WS[Trp(1-CH2COOH)][NMeNle][NMeNle]ECG[Pra]-NH2; thioether N-14)"
2,0.3 to 9.9,"C#CC[C@H](NC(=O)CNC(=O)[C@@H]1CSCC(=O)N[C@@H](Cc2cc(F)c(F)c(F)c2)C(=O)N(C)[C@@H](Cc2ccccc2)C(=O)N(C)[C@@H](CCCC)C(=O)N2CCC[C@@H]2C(=O)N[C@@H](CC(=O)O)C(=O)N[C@@H](C(C)C)C(=O)N(C)[C@@H](Cc2ccccc2)C(=O)N[C@@H](CCCN)C(=O)N2CCC[C@@H]2C(=O)N[C@@H](Cc2c[nH]c3ccccc23)C(=O)N[C@@H](Cc2ccc(O)cc2)C(=O)N[C@@H](CC(C)C)C(=O)N1)C(N)=O [INT 1400K, ClAc-F3Phe-mPhe-mNle-dPro-Asp-Val-mPhe-Orn-dPro-Trp-Tyr-Leu-Cys-Gly-[(S)-propargylglycine]] ({CH2CO}-[Phe(3,4,5-F3)][NMeF][NMeNle][dP]DV[NMeF][Orn][dP]WYLCG[Pra]-NH2; thioether N-13)"
3,10 to 99,"C#CC[C@H](NC(=O)CNC(=O)[C@@H]1CSCC(=O)N[C@@H](Cc2cc(F)c(F)c(F)c2)C(=O)N(C)[C@@H](Cc2ccccc2)C(=O)N(C)[C@@H](CCCC)C(=O)N2C[C@H](O)C[C@@H]2C(=O)N[C@@H](CC(=O)O)C(=O)N[C@@H](C(C)C)C(=O)N(C)[C@@H](Cc2ccccc2)C(=O)N[C@@H](CC(=O)O)C(=O)N2CCC[C@@H]2C(=O)N[C@@H](Cc2c[nH]c3ccccc23)C(=O)N[C@@H](Cc2ccc(O)cc2)C(=O)N[C@@H](CC(C)C)C(=O)N1)C(N)=O [INT 1400L, ClAc-F3Phe-mPhe-mNle-dHyp-Asp-Val-mPhe-Asp-dPro-Trp-Tyr-Leu-Cys-Gly-[(S)-propargylglycine]] ({CH2CO}-[Phe(3,4,5-F3)][NMeF][NMeNle][d(cisHyp)]DV[NMeF]D[dP]WYLCG[Pra]-NH2; thioether N-13)"
